Measured values from PMC5570423, “Structural characterisation of TNRC6A nuclear localisation signal in complex with importin-alpha” (PLoS ONE, 2017).
Where no end group is shown, it is not given here.

Columns and labels:
mImpα1ΔIBB = assay: In vitro GST pull-down with mouse Impα1ΔIBB; assay type: binding; details: 100 μg GST-cNLS, 250 μg Impα, glutathione resin, 4°C 1 hr, 20 mM Tris pH7.5, […] NaCl, 1 mM DTT; SDS-PAGE
Description: (§1) Glutathione resin (Pierce) was incubated with 100 μg of purified GST-cNLS or GST, and 250 μg of ImpA or 500 μg of ImpB at 4°C for 1 hr. Unbound protein was removed by washing beads 5 times in 500 μL binding buffer, and the bound proteins were eluted in binding buffer supplemented with 10 mM glutathione. The samples were analysed using SDS-PAGE, input lanes correspond to 1% of incubated samples and pull-down lanes correspond to 8% of eluted protein.

hImpα1ΔIBB = assay: In vitro GST pull-down with human Impα1ΔIBB; assay type: binding; details: 100 μg GST-cNLS, 250 μg Impα, glutathione resin, 4°C 1 hr; SDS-PAGE
Description: as §1

mouse Impβ = assay: In vitro GST pull-down with mouse Impβ; assay type: binding; details: GST-NLS with His-tagged mouse Impβ (500 μg), 4°C 1 hr; S1 Fig
Description: as §1
(§2) Pull-downs with GST-NLS or GST-mImpα1 full-length with His-tagged mouse and human Impβ. GST and mImpα1 served as the negative and positive controls, respectively. (EPS) Click here for additional data file.

human Impβ = assay: In vitro GST pull-down with human Impβ; assay type: binding; details: GST-NLS with His-tagged human Impβ (500 μg), 4°C 1 hr; S1 Fig
Description: as §1, §2

[1] = system: nuclear accumulation of a fluorescent reporter; details: template SSGA####AG, Lys/Arg combinations predicted to bind at P2-P5; cited from earlier work
Description: A detailed mutational analysis of a template monopartite NLS sequence has been reported, where all possible 16 Lys and/or Arg combinations (SSGA####AG, where # represents either Lys or Arg) predicted to bind at the P2-P5 pockets, were tested for their nuclear import activity.

HeLa cells = details: region comprising residues 1178–1187 of the human protein; cited from earlier work
Description: hTNRC6A cNLS (^1179[…]^1187; numbering according to isoform 1 and corresponds to ^926[…]^934 in isoform 2; Fig 1A) is located between the Ago-binding and UBA regions of the protein [35]. This motif is strictly conserved between mouse and humans (Fig 1B), is present in bats and hedgehogs, but appears to be absent in fish and insects.

SGKKRRRER [GST-TNRC6A cNLS, GST fusion of TNRC6A nuclear localisation signal, residues 1164–1172 of mouse TNRC6A (1179–1187 of human)]
binding to mImpα1ΔIBB in GST pull-down (mImpα1ΔIBB): sufficient to interact
binding to hImpα1ΔIBB in GST pull-down (hImpα1ΔIBB): sufficient to interact
pull-down of mouse Impβ (mouse Impβ): not sufficient to pull-down
pull-down of human Impβ (human Impβ): not sufficient to pull-down

P2 mutant: GST-TNRC6A cNLS with mTNRC6A Lys1167 mutated to Ala (SGKARRRER; also: fused to GST (GST not in chain), ends not given here)
binding to mImpα1ΔIBB in GST pull-down (mImpα1ΔIBB): completely abolished binding

NLS mutant: GST-TNRC6A cNLS with the four arginine residues substituted to Ala, as previously described (SGKKAAAEA; also: fused to GST (GST not in chain), ends not given here)
binding to mImpα1ΔIBB in GST pull-down (mImpα1ΔIBB): binding was disrupted

SSGAKRRRAG
nuclear accumulation of a fluorescent reporter [1]: Complete nuclear accumulation

SGKKRRRER [hTNRC6A cNLS, human TNRC6A cNLS, residues 1179–1187 of isoform 1; strictly conserved with mouse; tested earlier on a GFP reporter]
nuclear localisation of a GFP reporter (HeLa cells): sufficient to induce the nuclear localisation
